In brackets after ≈: the same amount, converted by molar mass. Read-outs that look alike come from different tables or passages of the source.
Experiments:
γ-GTP (human serum) [1] = biological target: T1, γ-GTP (human serum) (Homo sapiens, UniProt P19440); test: Measurement of γ-GTP activity with the substrate, human serum sample (rate assay, 410 nm); type: biochemical; settings: relative to Comparative Example 1 taken as 100, 37° C., 5 min
T1 construct: As samples, there were used human serum; from tissue; host or cells: human serum
Experimental: (§1) Measurement of γ-GTP activity
(§2) 100 Millimols of tris(hydroxymethyl)aminomethane and 60 mmols of glycylglycine were added in 800 ml of deionized water, and pH of its solution was adjusted to 8.2 (at 25° C.) with hydrochloric acid, after which the resulting solution was made up to 1 liter with deionized water.
(§3) In deionized water was dissolved 15 mmols of the γ-L-glutamyl-3-hydroxymethyl-4-nitroanilide obtained in Example 1 to make a total volume of 1 liter.
(§4) As samples, there were used human serum and 7% aqueous bovine albumin solutions containing γ-GTP derived from porcine kidney or bovine kidney (hereinafter abbreviated as parcine sample and bovine sample, respectively).
(§5) To 50 μl of each sample was added 2.0 ml of the buffer solution .circle.1 , followed by preincubation at 37° C. for 3 minutes, and 0.5 ml of the substrate solution .circle.2 was added. After sufficient mixing, the resulting mixture was allowed to stand for 1 minute, after which the increase rate of absorbance at 410 nm was measured, and the γ-GTP activity value (IU/l) in the sample was calculated from the molecular absorption coefficient (7.6×10^6 cm^2 /mol) of 3-hydroxymethyl-4-nitroaniline generated.
(§6) 100 mmols of tris(hydroxymethyl)aminomethane and 60 mmols of glycylglycine were added in 800 ml of deionized water, and pH of its solution was adjusted to 8.2 (at 25° C.) with hydrochloric acid, after which the resulting solution was made up to 1 liter with deionized water.
(§7) In deionized water was dissolved 15 mmols of the γ-L-glutamyl-3-(β-hydroxyethyl)-4-nitroanilide obtained in Example 3 to make a total volume of 1 liter.
(§8) The same samples as in Example 5 were used.
(§9) To 50 μl of each sample was added 2.0 ml of the buffer solution .circle.1 , followed by preincubation at 37° C. for 3 minutes, and 0.5 ml of the substrate solution .circle.2 was added. After sufficient mixing, the resulting mixture was allowed to stand for 1 minute, after which the increase rate of absorbance at 410 nm was measured, and the γ-GTP activity value (IU/l) in the sample was calculated from the molecular absorption coefficient (7.3×10^6 cm^2 /mol) of 3-(β-hydroxyethyl)-4-nitroaniline generated. […]
(§10) To 50 μl of each sample was added 2.0 ml of the buffer solution .circle.1 , followed by preincubation at 37° C. for 3 minutes, and 0.5 ml of the substrate solution .circle.2 was added. After sufficient mixing, the resulting mixture was allowed to stand for 1 minute, after which the increase rate of absorbance at 410 nm was measured, and the γ-GTP activity value (IU/l) in the sample was calculated from the molecular absorption coefficient (8.8×10^6 cm^2 /mol) of p-nitroaniline generated. […]

[2] = biological target: T2, γ-GTP derived from bovine kidney (Bos taurus, UniProt G3N2D8); test: Measurement of γ-GTP activity with the substrate, bovine sample (rate assay, 410 nm); type: biochemical; settings: relative to Comparative Example 1 taken as 100, 37° C., 5 min
T2 construct: γ-GTP derived from porcine kidney or bovine kidney; from tissue; host or cells: bovine kidney
Experimental: as §1, §2, §3, §4, §5, §6, §7, §8, §9, §10

γ-GTP = test: Difference in reactivity with γ-GTPs derived from various sources (human serum, porcine, bovine); type: biochemical; settings: for Difference between max. and min. activity values: human serum, porcine and bovine samples, relative values, Comparative Example 1 = 100
Experimental: as §4, §5
To 50 μl of each sample was added 2.0 ml of the buffer solution .circle.1 , followed by preincubation at 37° C. for 3 minutes, and 0.5 ml of the substrate solution .circle.2 was added. After sufficient mixing, the resulting mixture was allowed to stand for 1 minute, after which the increase rate of absorbance at 410 nm was measured, and the γ-GTP activity value (IU/l) in the sample was calculated from the molecular absorption coefficient (7.3×10^6 cm^2 /mol) of 3-(β-hydroxyethyl)-4-nitroaniline generated.
To 50 μl of each sample was added 2.0 ml of the buffer solution .circle.1 , followed by preincubation at 37° C. for 3 minutes, and 0.5 ml of the substrate solution .circle.2 was added. After sufficient mixing, the resulting mixture was allowed to stand for 1 minute, after which the increase rate of absorbance at 410 nm was measured, and the γ-GTP activity value (IU/l) in the sample was calculated from the molecular absorption coefficient (8.8×10^6 cm^2 /mol) of p-nitroaniline generated.
To 50 μl of each sample was added 2.0 ml of the buffer solution .circle.1 , followed by preincubation at 37° C. for 3 minutes, and 0.5 ml of the subdrate solution .circle.2 was added. After sufficient mixing, the resulting mixture was allowed to stand for 1 minute, after which the increase rate of absorbance at 410 nm was measured, and the γ-GTP activity value (IU/l) in the sample was calculated from the molecular absorption coefficient ([…]) of 3-carboxy-4-nitroaniline generated.
In Table 1, the values of Comparative Example 2 and Examples 5 and 6 are relative γ-GTP activity values taking those of Comparative Example 1 as 100. The γ-GTP activity values (IU/l) were calculated from an absorbance change (ΔE/5 min) at 410 nm for 5 minutes after initiation of the reaction.

[3] = Solubility of the substrates in reagent solutions; type: physicochemical; settings: pH 8.2, reagent solution (buffer:substrate solution 4:1)
Description: In Table 2 are shown the solubility of the substrates for measuring γ-GTP activity used in Examples 5 and 6 and Comparative Examples 1 and 2 in reagent solutions (reagent solutions being obtained by mixing each buffer solution and each substrate solution in the ratio of 4:1), and the results of stability test on the substrate solutions in the individual cases.

[4] = biological target: T3, γ-GTP derived from porcine kidney (Sus scrofa, UniProt P20735); test: Measurement of γ-GTP activity with the substrate, porcine sample (rate assay, 410 nm); type: biochemical; settings: relative to Comparative Example 1 taken as 100, 37° C., 5 min
T3 construct: γ-GTP derived from porcine kidney or bovine kidney; from tissue; host or cells: porcine kidney
Experimental: as §1, §2, §3, §4, §5, §6, §7, §8, §9, §10

[5] = background statement, cited from earlier work
γ-GTP (human serum) [6] = biological target: T1, γ-GTP (human serum); settings: reported by Leslie M. Shaw (Clinical Chemistry, 23, 79 (1977)); cited from earlier work
γ-GTP (human sera) = biological target: T4, γ-GTP (human sera) (Homo sapiens, UniProt P19440); test: Measurement of γ-GTP activity in human sera with Hitachi automatic analyzer Model 7150 (precision, correlation); type: biochemical; settings: for Average values (measured values of human sera): n=50 human sera; for Average / Coefficient of variation (C.V.) / Maximum / Minimum: within-run precision
T4 construct: heavy and light chain from one precursor), not purified
Experimental: (§11) The buffer solution prepared in Example 5 was used.
(§12) In deionized water was dissolved 10 mmols of the γ-L-glutamyl-3-hydroxymethyl-4-nitroanilide obtained in Example 4 to make a total volume of 1 liter.
Fifty human sera were used as samples.
The buffer solution prepared in Comparative Example 2 was used.
The substrate solution prepared in Comparative Example 2 was used.
The same samples as in Example 7 were used.
Measurement was carried out under the same conditions as in Example 7, except that among CHEMISTRY PARAMETERS in Table 4, R1 VOLUME was changed to [320][100][NO], […] to [80][20][NO], and K FACTOR to 7123 (ε=9.5).
0.125M Tris-HCL buffer (pH 7.8, at 37° C., containing 96 mM glycylglycine and 13 mM magnesium chloride).
A 0.1N hydrochloric acid solution containing 20 mM of γ-L-glutamyl-4-nitroanilide.
Measurement was carried out under the same conditions as in Example 7, except that among CHEMISTRY PARAMETERS in Table 4, K FACTOR was changed to 6835 (ε=9.90).
In FIG. 1 is shown the correlation of the values measured for the individual human sera in Example 7 with those in Comparative Example 3. The coefficient of correlation, the regression equation, and the like, obtained by statistical processing, etc. are shown below.
In FIG. 2 is shown the correlation of the values measured for the individual human sera in Example 7 with those in Comparative Example 4. The coefficient of correlation, the regression equation, and the like, obtained by statistical processing, etc. are shown below.

γ-GTP (porcine kidney) [7] = settings: reported by Leslie M. Shaw (Clinical Chemistry, 23, 79 (1977)); cited from earlier work
[8] = suitable pH range for determining γ-GTP activity; background statement; cited from earlier work
[9] = biological target: T3, γ-GTP derived from porcine kidney; test: Calibration curve linearity with γ-GTP derived from porcine kidney in 7% aqueous bovine albumin solution; type: biochemical; settings: 7% aqueous bovine albumin solution containing porcine kidney γ-GTP
Experimental: as §11, §12

γ-GTP (bovine kidney) = test: Km value, γ-GTP from bovine kidney; type: biochemical
Description: (§13) In Table 3 are shown the results of measuring, by a conventional method, Km values of γ-L-glutamyl-3-hydroxymethyl-4-nitroanilide, which is a compound of this invention, for each of γ-GTPs derived from human serum, porcine kidney and bovine kidney.

γ-GTP (porcine kidney) [10] = test: Km value, γ-GTP from porcine kidney; type: biochemical
Description: as §13
In Table 3 are also shown, for reference, Km values of γ-L-glutamyl-3-carboxy-4-nitroanilide and γ-L-glutamyl-p-nitroanilide reported by Leslie M. Shaw (Clinical Chemistry, 23, 79 (1977)).

T1 sequence (P19440 1-380 limits assumed): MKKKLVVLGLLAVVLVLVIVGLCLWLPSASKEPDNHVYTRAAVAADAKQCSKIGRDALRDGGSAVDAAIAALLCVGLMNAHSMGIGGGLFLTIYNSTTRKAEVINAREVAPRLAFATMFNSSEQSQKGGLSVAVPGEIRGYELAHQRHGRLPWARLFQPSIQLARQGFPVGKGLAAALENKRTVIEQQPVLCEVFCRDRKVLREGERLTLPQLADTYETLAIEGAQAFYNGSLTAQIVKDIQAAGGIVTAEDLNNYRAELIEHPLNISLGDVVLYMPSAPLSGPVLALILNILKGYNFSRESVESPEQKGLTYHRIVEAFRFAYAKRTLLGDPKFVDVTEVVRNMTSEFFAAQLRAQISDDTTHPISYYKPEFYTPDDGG
T1 sequence (P19440 381-569 limits assumed): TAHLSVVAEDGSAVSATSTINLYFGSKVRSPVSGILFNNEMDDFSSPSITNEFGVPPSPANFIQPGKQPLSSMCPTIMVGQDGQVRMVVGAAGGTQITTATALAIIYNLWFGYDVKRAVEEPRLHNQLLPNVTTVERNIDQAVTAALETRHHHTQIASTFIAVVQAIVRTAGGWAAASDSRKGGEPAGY
T2 sequence (G3N2D8 1-379 limits assumed): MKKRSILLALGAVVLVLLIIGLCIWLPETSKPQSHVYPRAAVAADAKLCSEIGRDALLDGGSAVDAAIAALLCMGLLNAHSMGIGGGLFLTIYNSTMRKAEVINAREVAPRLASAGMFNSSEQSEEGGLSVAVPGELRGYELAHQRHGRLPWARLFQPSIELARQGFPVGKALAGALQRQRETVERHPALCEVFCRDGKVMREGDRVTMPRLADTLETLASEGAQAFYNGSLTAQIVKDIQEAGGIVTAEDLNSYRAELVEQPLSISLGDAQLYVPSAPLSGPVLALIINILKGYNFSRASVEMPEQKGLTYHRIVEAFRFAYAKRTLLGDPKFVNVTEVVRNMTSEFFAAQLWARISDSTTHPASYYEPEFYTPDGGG
T2 sequence (G3N2D8 380-568 limits assumed): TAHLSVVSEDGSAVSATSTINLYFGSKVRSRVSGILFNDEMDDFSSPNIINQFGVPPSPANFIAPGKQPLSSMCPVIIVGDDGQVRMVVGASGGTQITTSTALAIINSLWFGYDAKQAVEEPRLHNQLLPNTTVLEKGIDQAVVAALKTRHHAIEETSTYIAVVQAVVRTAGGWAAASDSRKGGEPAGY
T4 sequence (P19440 whole entry): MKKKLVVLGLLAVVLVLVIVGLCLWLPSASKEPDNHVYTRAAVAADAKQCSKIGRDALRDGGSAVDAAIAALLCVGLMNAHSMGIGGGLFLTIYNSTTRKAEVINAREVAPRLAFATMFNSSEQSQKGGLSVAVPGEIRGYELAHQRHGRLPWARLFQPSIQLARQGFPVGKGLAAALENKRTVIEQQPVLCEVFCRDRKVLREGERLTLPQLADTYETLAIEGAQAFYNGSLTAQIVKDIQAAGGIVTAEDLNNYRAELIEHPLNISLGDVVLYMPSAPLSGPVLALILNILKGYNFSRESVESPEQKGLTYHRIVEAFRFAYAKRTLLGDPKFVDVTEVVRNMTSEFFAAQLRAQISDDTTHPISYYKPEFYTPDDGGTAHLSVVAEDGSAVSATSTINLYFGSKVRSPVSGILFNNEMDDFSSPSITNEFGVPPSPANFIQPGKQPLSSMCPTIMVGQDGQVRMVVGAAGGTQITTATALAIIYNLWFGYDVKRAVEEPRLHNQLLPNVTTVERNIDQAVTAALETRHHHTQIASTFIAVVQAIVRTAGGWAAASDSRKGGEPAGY
T3 sequence (P20735 1-379 limits assumed): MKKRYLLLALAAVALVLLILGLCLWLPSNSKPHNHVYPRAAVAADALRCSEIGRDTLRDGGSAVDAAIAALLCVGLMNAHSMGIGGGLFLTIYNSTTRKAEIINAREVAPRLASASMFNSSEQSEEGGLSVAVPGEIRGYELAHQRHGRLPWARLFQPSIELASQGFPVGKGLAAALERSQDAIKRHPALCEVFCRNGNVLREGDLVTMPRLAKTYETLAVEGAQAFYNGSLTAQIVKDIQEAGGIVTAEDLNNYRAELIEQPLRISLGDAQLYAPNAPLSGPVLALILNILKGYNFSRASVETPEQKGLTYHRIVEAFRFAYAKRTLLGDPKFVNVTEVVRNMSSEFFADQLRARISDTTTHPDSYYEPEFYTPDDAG
T3 sequence (P20735 380-568 limits assumed): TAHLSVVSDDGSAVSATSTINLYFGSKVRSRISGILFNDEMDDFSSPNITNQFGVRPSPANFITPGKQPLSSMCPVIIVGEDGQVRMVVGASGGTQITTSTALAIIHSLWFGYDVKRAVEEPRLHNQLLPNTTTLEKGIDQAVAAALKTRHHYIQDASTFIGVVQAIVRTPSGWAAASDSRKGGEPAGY

SMILES | relative γ-GTP activity value, human serum (γ-GTP (human serum) [1]) | relative γ-GTP activity value, bovine sample [2] | Difference between max. and min. activity values (γ-GTP) | Solubility ([3]; 5° C.) [µM] | relative γ-GTP activity value, porcine sample [4] | solubility and stability after dissolution versus γ-glutamyl-p-nitroanilide (in words) [5] | Km (γ-GTP (human serum) [6]) [µM] | Average values (measured values of human sera) (γ-GTP (human sera)) | Km (γ-GTP (porcine kidney) [7]) [µM] | further results
N[C@@H](CCC(=O)Nc1ccc([N+](=O)[O-])c(CCO)c1)C(=O)O [γ-L-glutamyl-3-(β-hydroxyethyl)-4-nitroanilide] | 95 | 85 | 10 | 10000 (≈ 3.11 mg/mL) | 87 | – | – | – | – | –
N[C@@H](CCC(=O)Nc1ccc([N+](=O)[O-])c(C(=O)O)c1)C(=O)O [γ-L-glutamyl-3-carboxy-4-nitroanilide, reference compound] | 103 | 94 | 33 | ≥ 100000 | 127 | much superior | 1190 | 106.72 | 1630 | difference in reactivity with γ-GTPs derived from various sources (in words) (γ-GTP; various sources of γ-GTP): vary more widely in reactivity with γ-GTPs derived from various sources
N[C@@H](CCC(=O)Nc1ccc([N+](=O)[O-])cc1)C(=O)O [γ-L-glutamyl-p-nitroanilide, reference compound] | 100 | 100 | – | – | 100 | – | 1330 | 115.02 | 1870 | stability (in words) ([5]; suitable pH range for dissolution): unstable; solubility (in words) [8]: slightly soluble; Solubility ([3]; 37° C.): 5000 µM (≈ 1.34 mg/mL)
N[C@@H](CCC(=O)Nc1ccc([N+](=O)[O-])c(CO)c1)C(=O)O [γ-L-glutamyl-3-hydroxymethyl-4-nitroanilide] | 148 | 151 | 12 | ≥ 100000 | 139 | – | – | 115.94 | – | linearity of calibration curve, upper limit [9]: about 6400 IU/l; Coefficient of correlation (γ-GTP (human sera); Example 7 vs Comparative Example 3, n=50 human sera): 0.9998; Coefficient of correlation (γ-GTP (human sera); Example 7 vs Comparative Example 4, n=50 human sera): 0.9998; within-run precision (in words) (γ-GTP (human sera); Table 5): good precision; Average (γ-GTP (human sera); sample 1, n=40): 66.4 IU/l; Coefficient of variation (C.V.) (γ-GTP (human sera); sample 1, n=40): 0.95; Maximum (γ-GTP (human sera); sample 1, n=40): 68 IU/l; Minimum (γ-GTP (human sera); sample 1, n=40): 66 IU/l; Average (γ-GTP (human sera); sample 2, n=40): 137.0 IU/l; Coefficient of variation (C.V.) (γ-GTP (human sera); sample 2, n=40): 0.83; Maximum (γ-GTP (human sera); sample 2, n=40): 139 IU/l; Minimum (γ-GTP (human sera); sample 2, n=40): 134 IU/l; Km (γ-GTP (bovine kidney)): 670 µM; Km (γ-GTP (porcine kidney) [10]): 670 µM
N[C@@H](CCC(=O)Nc1ccc([N+](=O)[O-])c(S(=O)(=O)O)c1)C(=O)O [γ-L-glutamyl-3-sulfo-4-nitroanilide] | – | – | – | – | – | much superior | – | – | – | –

Source: US4851572A, “γ-L-glutamyl-4-nitroanilide derivatives and process for determining γ-GTP activity using the same” (Wako Pure Chemical Industries, Ltd., priority 1987, dated 1989)
